Results taken from paper PMC6191125, “Peptidoglycan potentiates the membrane disrupting effect of the carboxyamidated form of DMS-DA6, a Gram-positive selective antimicrobial peptide isolated from Pachymedusa dacnicolor skin” (PLoS ONE, 2018).
≈ marks a conversion by molar mass, not a printed value. Residues, ends and D or L forms follow the SMILES beside them.

Legend:
[1] = Circular dichroism, helical content with lipid vesicles; assay type: physicochemical; conditions: CD, 10 mM phosphate buffer pH 7.4, 20 μM peptide, peptide/lipid molar ratio 1/50
Description: Lipid vesicles were formed using bacterial lipids extracted as described above or commercially available synthetic lipids. The lipids, 1-palmitoyl-2-oleoyl-sn-glycero-3-phosphocholine (POPC), 1-palmitoyl-2-oleoyl-sn-glycero-3-phospho-(1'-rac-glycerol) (POPG), 1,2-dimyristoyl-sn-glycero-3-phosphoglycerol (DMPG), 1.2-dioleyl-sn-glycero-3-phosphoglycerol (DOPG), and 1',3'-bis[1,2-dioleoyl-sn-glycero-3-phospho]-sn-glycerol (CL), were obtained from Avanti Polar Lipids, Inc (Alabaster, AL) and used without further purification. Desired mixtures of phospholipids were first dried in glass tubes under nitrogen and then maintained under a reduced pressure for at least 60 min. Lipid films were subsequently hydrated in PBS to yield a lipid concentration of 10 mg.mL^-1 for tryptophan fluorescence experiments, 1 mg.mL^-1 for DSC experiments, and in PB at 1 mM for CD experiments. The resulting dispersions of large multilamellar vesicles (MLVs) were subjected to 3 to 5 freeze-thaw cycles and then extruded 15 times through polycarbonate membranes (100 nm pore size, Whatman, Maidstone, UK) on an Avanti mini-extruder apparatus (Avanti Polar Lipids, Inc., Alabaster, AL) to generate large unilamellar vesicles (LUVs). Lipid vesicles were used either alone, or in combination with S. aureus peptidoglycan (PGN) (Sigma).
The CD spectra of the peptides were recorded as previously described. […]

[2] = test system: S. aureus DAR 5829; assay type: cell-based, Staphylococcus aureus; conditions: S. aureus DAR 5829, multi-resistant strain
Description: (§1) Gram-negative bacterial strains, Escherichia coli ATCC 8739, Escherichia coli ATCC 35218, Escherichia coli ML 35p, Escherichia coli K12, Pseudomonas aeruginosa ATCC 27853, and Gram-positive bacterial strains, Enterococcus faecalis ATCC29212, Kocuria rhizophila ATCC 9341, Staphylococcus aureus ATCC 6538, Staphylococcus aureus ATCC 29213, Staphylococcus aureus ST 1065, Staphylococcus epidermidis BM 3302, and Bacillus subtilis subsp. subtilis CIP 52.65, as well as two multiresistant strains (Staphylococcus aureus DAR 5829 (http://www.ncbi.nlm.nih.gov/bioproject/228435) and Enterococcus faecium BM 4147 [20] were cultured as described previously. The minimal inhibitory concentration (MIC) of the peptides was determined by the microtiter broth dilution method. Overnight precultures were subcultured in Luria Bertani (LB) medium at 37°C with vigorous shaking until mid-log phase (~2h) and diluted to 10^7 cfu/mL. Peptide solutions were prepared at different concentrations (from 2 to 500 μM) by successive 2-fold dilutions in water from 1 mM stock solutions. In each row of a 96-well nonbinding surface plate, 90 μL of bacteria were incubated with 10 μL of peptide solutions for 18 h at 37°C. The final peptide concentrations ranged from 0.2 to 100 μM. Cell growth was evaluated by visual inspection and absorbance at 600 nm to determine the lowest concentration of peptide that prevented cell growth. Wells were either opaque, indicating stationary phase growth, or transparent indicating no growth. The lowest concentration showing no visible growth was considered as the MIC. After measurement of the MIC, the bactericidal activity was determined by the addition of resazurin dye (30 μL, 0.01% w/v) to each well [22]. The plates were further incubated at 37°C for 18 h. Wells in which the dye turned pink indicated live bacteria, whereas wells in which the dye remained blue indicated dead bacteria. The minimal bactericidal concentration (MBC) is the lowest concentration with blue coloration (99.9% of bacteria were killed). Three to five independent assays were performed in triplicate. Positive controls correspond to medium plus 0.2% formaldehyde and negative controls to medium without peptide.

[3] = test system: S. aureus ATCC 6538; assay type: cell-based, Staphylococcus aureus
Description: as §1

[4] = test system: S. aureus ATCC 29213; assay type: cell-based, Staphylococcus aureus
Description: as §1

[5] = test system: S. aureus ST 1065; assay type: cell-based, Staphylococcus aureus
Description: as §1

[6] = test system: K. rhizophila ATCC 9341; assay type: cell-based, Kocuria rhizophila
Description: as §1

[7] = test system: E. faecalis ATCC 29212; assay type: cell-based, Enterococcus faecalis
Description: as §1

[8] = test system: S. aureus ST1065; experiment: Bacterial membrane permeabilization (ONPG hydrolysis); assay type: cell-based, Staphylococcus aureus; conditions: S. aureus ST 1065, 2.5 mM ONPG, absorbance at 420 nm; two independent experiments in triplicate
Method: Membrane permeabilization was assessed by monitoring the hydrolysis of ortho-nitrophenyl β-D-galactopyranoside (ONPG) by the β-galactosidase enzyme, using the S. aureus ST1065 strain, specifically designed for membrane permeabilization assays, through detection of cytoplasmic β-galactosidase activity leakage. Bacteria were grown in LB to an absorbance of 0.5 at 600 nm, pelleted by centrifugation, and the pellets were washed twice with PBS. Pellets were then resuspended in 10% LB in PBS to an absorbance of 0.5 at 600 nm. Aliquots (15 μL) of bacterial suspension were mixed with 2.5 mM ONPG and incubated with various concentrations of peptide in a 96-well plate. The hydrolysis of ONPG was monitored by measuring the absorbance at 420 nm of released o-nitrophenol with a Fluostar Galaxy microplate reader (BMG LabTech, France).

[9] = test system: S. epidermidis BM3302; assay type: cell-based, Staphylococcus epidermidis
Description: as §1

[10] = test system: A549 cells; experiment: Cytotoxicity, trypan blue exclusion; assay type: cell-based; conditions: A549 human lung carcinoma cells, 2-hour incubation at 37°C, 5% CO2, concentrations as high as 100 μM; 3 independent experiments in triplicate
Method: A549 cells (ATCC CCL-185), a human lung carcinoma cell line, were cultivated at 37°C, humid atmosphere and 5% CO2, in Petri dishes with DMEM Advanced medium (Gibco) supplemented with 5% of fetal bovine serum (FBS), 2 mM of glutamine, 100 U of penicillin and 50 μg/mL of streptomycin (Gibco). When the cells reached 80% confluence, the medium was discarded and the cells were washed with PBS 1×, before being treated with Trypsin 1× for 2 minutes to detach them form the culture dish. Cells were then resuspended in DMEM medium, seeded in a 48-well culture plate (500 000 cells/well), and either form of DMS-DA6 solubilized in PBS 1× was added and incubated for 2 hours at 37°C, 5% CO2. DMSO 30% was used as a positive control to induce cell death, and DMEM medium as negative control. After incubation, cell viability was assessed by trypan blue exclusion.

[11] = test system: E. faecium BM 4147; assay type: cell-based, Enterococcus faecium; conditions: E. faecium BM 4147, multi-resistant strain
Description: as §1

[12] = test system: E. coli ATCC 35218; assay type: cell-based, Escherichia coli; conditions: LB, 10^7 cfu/mL, 18 h at 37°C, peptide 0.2-100 μM, averaged over >=3 independent experiments in triplicate
Description: as §1

[13] = test system: E. coli ATCC 8739; assay type: cell-based, Escherichia coli
Description: as §1

[14] = test system: E. coli ML 35p; assay type: cell-based, Escherichia coli; conditions: LB, 10^7 cfu/mL, 18 h at 37°C, peptide 0.2-100 μM, averaged over >=3 independent experiments in triplicate
Description: as §1

[15] = test system: E. coli K12; assay type: cell-based, Escherichia coli; conditions: LB, 10^7 cfu/mL, 18 h at 37°C, peptide 0.2-100 μM, averaged over >=3 independent experiments in triplicate
Description: as §1

[16] = test system: Ps. aeruginosa ATCC 27853; assay type: cell-based, Pseudomonas aeruginosa; conditions: LB, 10^7 cfu/mL, 18 h at 37°C, peptide 0.2-100 μM, averaged over >=3 independent experiments in triplicate
Description: as §1, with “Wells were either opaque, indicating stationary phase growth, or transparent indicating no growth. The lowest concentration showing no visible growth was considered as the MIC. After measurement of the MIC, the bactericidal activity was determined by the addition of resazurin dye (30 μL, 0.01% w/v) to each well [22]. The plates were further incubated at 37°C for 18 h. Wells in which the dye turned pink indicated live bacteria, whereas wells in which the dye remained blue indicated dead bacteria. The minimal bactericidal concentration (MBC) is the lowest concentration with blue coloration (99.9% of bacteria were killed). Three to five independent assays were performed in triplicate. Positive controls correspond to medium plus 0.2% formaldehyde and negative controls to medium without peptide.” left out

[17] = test system: B. subtilis CIP 52.65; assay type: cell-based, Bacillus subtilis subsp. subtilis
Description: as §1

[18] = LB, 10^7 cfu/mL, 18 h at 37°C, averaged over >=3 independent experiments in triplicate
[19] = resazurin dye added after MIC, further 18 h at 37°C, 99.9% killed, averaged over >=3 experiments in triplicate

## CC[C@H](C)[C@H](NC(=O)CNC(=O)[C@H](Cc1c[nH]c2ccccc12)NC(=O)[C@@H](NC(=O)CN)C(C)C)C(=O)N[C@@H](C)C(=O)N[C@@H](CCCCN)C(=O)N[C@H](C(=O)N[C@@H](C)C(=O)NCC(=O)N[C@@H](CCCCN)C(=O)N[C@H](C(=O)N[C@@H](CC(C)C)C(=O)NCC(=O)N[C@@H](CC(N)=O)C(=O)N[C@H](C(=O)N[C@@H](CC(C)C)C(=O)N1CCC[C@H]1C(=O)N[C@@H](Cc1c[nH]cn1)C(=O)N[C@H](C(=O)N[C@@H](Cc1ccccc1)C(=O)N[C@@H](CO)C(=O)N[C@@H](CO)C(=O)N[C@@H](CC(N)=O)C(=O)N[C@@H](CCC(N)=O)C(=O)N[C@@H](CO)C(N)=O)C(C)C)[C@@H](C)CC)C(C)C)[C@@H](C)CC [DMS-DA6-NH2] (H-GVWGIAKIAGKVLGNILPHVFSSNQS-NH2)
[1]; POPG LUVs
  α-helix conformation: about 80%
[1]; pure zwitterionic POPC LUVs
  α-helix conformation: 40%
[2]; [18]
  MIC: 25 µM (≈ 67.3 µg/mL)
[2]; [19]
  MBC: 50 µM (≈ 135 µg/mL)
[3]; [18]
  MIC: 6.25 µM (≈ 16.8 µg/mL)
[3]; [19]
  MBC: 6.25 µM (≈ 16.8 µg/mL)
[4]; [18]
  MIC: 3.12 µM (≈ 8.4 µg/mL)
[4]; [19]
  MBC: 6.25 µM (≈ 16.8 µg/mL)
[5]; [18]
  MIC: 12.5 µM (≈ 33.7 µg/mL)
[5]; [19]
  MBC: 12.5 µM (≈ 33.7 µg/mL)
[6]; [18]
  MIC: 3.12 µM (≈ 8.4 µg/mL)
[6]; [19]
  MBC: 3.12 µM (≈ 8.4 µg/mL)
[7]; [18]
  MIC: 50 µM (≈ 135 µg/mL)
[7]; [19]
  MBC: 50 µM (≈ 135 µg/mL)
[8]
  peptide concentration at which the maximal absorption intensity (ONPG hydrolysis) after 240 minutes was reached: 12.5 µM
[9]; [18]
  MIC: 12.5 µM (≈ 33.7 µg/mL)
[9]; [19]
  MBC: 12.5 µM (≈ 33.7 µg/mL)
[10]
  death of A549 cells (trypan blue exclusion): neither DMS-DA6-OH (net charge +2) nor DMS-DA6-NH2 (net charge +3) resulted in the death
[11]; [18]
  MIC: 25 µM (≈ 67.3 µg/mL)
[11]; [19]
  MBC: 25 µM (≈ 67.3 µg/mL)
[12]
  MIC: >100 µM
[13]; [18]
  MIC: 25 µM (≈ 67.3 µg/mL)
[13]; [19]
  MBC: 50 µM (≈ 135 µg/mL)
[14]
  MIC: >100 µM
[15]
  MIC: >100 µM
[16]
  MIC: >100 µM
other
  intact peptide remaining: > 90%
[17]; [18]
  MIC: 6.25 µM (≈ 16.8 µg/mL)
[17]; [19]
  MBC: 6.25 µM (≈ 16.8 µg/mL)
